# Data published in US4746349A, “Method and compositions for suppressing the nitrification of ammonium in plant growth medium” (American Cyanamid Company, priority 1986, dated 1988).
# Counter-ions that a name gives are not always drawn.
# Key:
# Nitrobacter spp. = assay: Nitrite nitrogen in ammonium amended soil incubated at 25° C.; conditions: soil 25° C., 200 ppm N
# Description: Determination of nitrite nitrogen and nitrate nitrogen in soil prepared in Example 1 above, which is amended with 200 ppm of nitrogen as aqueous ammonium sulfate, […], is determined using the nitrite and nitrate analysis of the American Organization of Analytical Chemists (AOAC pp. 653-655).
# Nitrosomonas spp. = assay: Nitrification of ammonium in soil incubated at 25° C. (ammonium recovery, nitrate accumulation); conditions: soil 25° C.; for Concentration of nitrate nitrogen / Recovery of Ammonium Nitrogen: 200 ppm N
# Description: In these evaluations, one hundred grams (100 g) of oven dry, silt loam field soil with low residual nitrogen is added to a 6×12 cm screw-capped glass jar for each sampling date to provide an optimum environment for nitrification.
# Two replicates of each treatment-sampling date are established. The soil is adjusted to 50% water saturation with an aqueous solution of ammonium sulfate at 200 ppm N and the chemical to be tested as a nitrification inhibitor at rates of from 0.10 to 0.50 ppm.
# Incubation is at either 25° C. or 38° C. for 0, 1, 2, 4, 7, 9, 12, 16 or 20 weeks. Inorganic N is extracted by adding 2M KCl (10:1 v/w) and shaking for one hour, allowing settling for fifteen minutes. A 10 ml aliquot from the supernatant is assayed for ammonium, nitrite and nitrate by standard steam distillation methods (AOAC, pp. 653-655). Nitrapyrin (0.5 ppm) is used as a nitrification inhibitor for comparison. Benzyl alcohol, acetone, and a non-N amended soil are run as controls and as a check on mineralization.
# Nitrification: Ammonium recovery and nitrate accumulation are indicative of nitrification, and data obtained with test compounds are reported in Tables I and II.
smiles,measurement,setting,value
"CC[C@@]1([C@@H]2O[C@@H]([C@H]3O[C@@](O)(CO)[C@H](C)C[C@@H]3C)C[C@@H]2C)CC[C@H]([C@]2(C)CC[C@]3(C[C@H](O)[C@@H](C)[C@@H]([C@@H](C)[C@@H](OC)[C@H](C)C(=O)O)O3)O2)O1 [Monensin sodium salt, Monensin]",Concentration of nitrite nitrogen,"Nitrobacter spp.; 0.10 ppm, week 0",9 ppm
same,Concentration of nitrite nitrogen,"Nitrobacter spp.; 0.10 ppm, week 1",-4 ppm
same,Concentration of nitrite nitrogen,"Nitrobacter spp.; 0.10 ppm, week 2",4 ppm
same,Concentration of nitrite nitrogen,"Nitrobacter spp.; 0.10 ppm, week 4",11 ppm
same,Concentration of nitrite nitrogen,"Nitrobacter spp.; 0.10 ppm, week 7",7 ppm
same,Concentration of nitrite nitrogen,"Nitrobacter spp.; 0.10 ppm, week 9",16 ppm
same,Concentration of nitrite nitrogen,"Nitrobacter spp.; 0.10 ppm, week 12",18 ppm
same,Concentration of nitrite nitrogen,"Nitrobacter spp.; 0.10 ppm, week 16",7 ppm
same,Concentration of nitrite nitrogen,"Nitrobacter spp.; 0.10 ppm, week 20",11 ppm
same,Concentration of nitrite nitrogen,"Nitrobacter spp.; 0.25 ppm, week 0",6 ppm
same,Concentration of nitrite nitrogen,"Nitrobacter spp.; 0.25 ppm, week 1",3 ppm
same,Concentration of nitrite nitrogen,"Nitrobacter spp.; 0.25 ppm, week 2",6 ppm
same,Concentration of nitrite nitrogen,"Nitrobacter spp.; 0.25 ppm, week 4",7 ppm
same,Concentration of nitrite nitrogen,"Nitrobacter spp.; 0.25 ppm, week 7",-4 ppm
same,Concentration of nitrite nitrogen,"Nitrobacter spp.; 0.25 ppm, week 9",17 ppm
same,Concentration of nitrite nitrogen,"Nitrobacter spp.; 0.25 ppm, week 12",30 ppm
same,Concentration of nitrite nitrogen,"Nitrobacter spp.; 0.25 ppm, week 16",3 ppm
same,Concentration of nitrite nitrogen,"Nitrobacter spp.; 0.25 ppm, week 20",90 ppm
same,Concentration of nitrite nitrogen,"Nitrobacter spp.; 0.50 ppm, week 0",6 ppm
same,Concentration of nitrite nitrogen,"Nitrobacter spp.; 0.50 ppm, week 1",5 ppm
same,Concentration of nitrite nitrogen,"Nitrobacter spp.; 0.50 ppm, week 2",6 ppm
same,Concentration of nitrite nitrogen,"Nitrobacter spp.; 0.50 ppm, week 4",0 ppm
same,Concentration of nitrite nitrogen,"Nitrobacter spp.; 0.50 ppm, week 7",2 ppm
same,Concentration of nitrite nitrogen,"Nitrobacter spp.; 0.50 ppm, week 9",-7 ppm
same,Concentration of nitrite nitrogen,"Nitrobacter spp.; 0.50 ppm, week 12",4 ppm
same,Concentration of nitrite nitrogen,"Nitrobacter spp.; 0.50 ppm, week 16",2 ppm
same,Concentration of nitrite nitrogen,"Nitrobacter spp.; 0.50 ppm, week 20",22 ppm
same,Concentration of nitrate nitrogen,"Nitrosomonas spp.; 0.10 ppm, week 0",18 PPM
same,Concentration of nitrate nitrogen,"Nitrosomonas spp.; 0.10 ppm, week 1",17 PPM
same,Recovery of Ammonium Nitrogen,"Nitrosomonas spp.; 0.10 ppm, week 1",175 PPM
same,Concentration of nitrate nitrogen,"Nitrosomonas spp.; 0.10 ppm, week 2",17 PPM
same,Recovery of Ammonium Nitrogen,"Nitrosomonas spp.; 0.10 ppm, week 2",175 PPM
same,Concentration of nitrate nitrogen,"Nitrosomonas spp.; 0.10 ppm, week 4",45 PPM
same,Recovery of Ammonium Nitrogen,"Nitrosomonas spp.; 0.10 ppm, week 4",155 PPM
same,Concentration of nitrate nitrogen,"Nitrosomonas spp.; 0.10 ppm, week 7",199 PPM
same,Recovery of Ammonium Nitrogen,"Nitrosomonas spp.; 0.10 ppm, week 7",17 PPM
same,Concentration of nitrate nitrogen,"Nitrosomonas spp.; 0.10 ppm, week 9",220 PPM
same,Recovery of Ammonium Nitrogen,"Nitrosomonas spp.; 0.10 ppm, week 9",3 PPM
same,Concentration of nitrate nitrogen,"Nitrosomonas spp.; 0.10 ppm, week 12",206 PPM
same,Recovery of Ammonium Nitrogen,"Nitrosomonas spp.; 0.10 ppm, week 12",2 PPM
same,Concentration of nitrate nitrogen,"Nitrosomonas spp.; 0.10 ppm, week 16",213 PPM
same,Recovery of Ammonium Nitrogen,"Nitrosomonas spp.; 0.10 ppm, week 16",5 PPM
same,"Specific inhibition of nitrification through activity against Nitrosomonas spp., in words",Nitrosomonas spp.; 0.1 to 0.5 ppm,appear to specifically inhibit nitrification through activity against Nitrosomonas spp.
same,Concentration of nitrate nitrogen,"Nitrosomonas spp.; 0.25 ppm, week 0",19 PPM
same,Concentration of nitrate nitrogen,"Nitrosomonas spp.; 0.25 ppm, week 1",22 PPM
same,Recovery of Ammonium Nitrogen,"Nitrosomonas spp.; 0.25 ppm, week 1",179 PPM
same,Concentration of nitrate nitrogen,"Nitrosomonas spp.; 0.25 ppm, week 2",21 PPM
same,Concentration of nitrate nitrogen,"Nitrosomonas spp.; 0.25 ppm, week 4",23 PPM
same,Concentration of nitrate nitrogen,"Nitrosomonas spp.; 0.25 ppm, week 7",28 PPM
same,Concentration of nitrate nitrogen,"Nitrosomonas spp.; 0.25 ppm, week 9",54 PPM
same,Recovery of Ammonium Nitrogen,"Nitrosomonas spp.; 0.25 ppm, week 9",157 PPM
same,Concentration of nitrate nitrogen,"Nitrosomonas spp.; 0.25 ppm, week 12",70 PPM
same,Recovery of Ammonium Nitrogen,"Nitrosomonas spp.; 0.25 ppm, week 12",124 PPM
same,Concentration of nitrate nitrogen,"Nitrosomonas spp.; 0.25 ppm, week 16",158 PPM
same,Recovery of Ammonium Nitrogen,"Nitrosomonas spp.; 0.25 ppm, week 16",74 PPM
same,Concentration of nitrate nitrogen,"Nitrosomonas spp.; 0.25 ppm, week 20",121 PPM
same,Recovery of Ammonium Nitrogen,"Nitrosomonas spp.; 0.25 ppm, week 20",21 PPM
same,Concentration of nitrate nitrogen,"Nitrosomonas spp.; 0.50 ppm, week 0",18 PPM
same,Concentration of nitrate nitrogen,"Nitrosomonas spp.; 0.50 ppm, week 1",18 PPM
same,Recovery of Ammonium Nitrogen,"Nitrosomonas spp.; 0.50 ppm, week 1",176 PPM
same,Concentration of nitrate nitrogen,"Nitrosomonas spp.; 0.50 ppm, week 2",21 PPM
same,Concentration of nitrate nitrogen,"Nitrosomonas spp.; 0.50 ppm, week 4",22 PPM
same,Concentration of nitrate nitrogen,"Nitrosomonas spp.; 0.50 ppm, week 7",23 PPM
same,Concentration of nitrate nitrogen,"Nitrosomonas spp.; 0.50 ppm, week 9",19 PPM
same,Concentration of nitrate nitrogen,"Nitrosomonas spp.; 0.50 ppm, week 12",22 PPM
same,Concentration of nitrate nitrogen,"Nitrosomonas spp.; 0.50 ppm, week 16",121 PPM
same,Recovery of Ammonium Nitrogen,"Nitrosomonas spp.; 0.50 ppm, week 16",110 PPM
same,Concentration of nitrate nitrogen,"Nitrosomonas spp.; 0.50 ppm, week 20",72 PPM
same,Recovery of Ammonium Nitrogen,"Nitrosomonas spp.; 0.50 ppm, week 20",143 PPM
